Source: the NIST ThermoML archive (doi:10.1016/j.jct.2006.09.014)
“And” between values parts separate entries of the source, which are not always exact repeats. Equal values may be shown once. Numbers after ± are expanded uncertainties.

Conditions: Liquid; for mass density: Bellows volumetry; for vapor or sublimation pressure: Closed cell (Static) method

CCCC [butane]
Conditions | mass density [kg/m3]
280 K, 145 kPa | 594.1 ± 0.9
280 K, 168.4 kPa | 594.15 ± 0.9
280 K, 191.6 kPa | 594.23 ± 0.9
280 K, 215 kPa | 594.24 ± 0.9
280 K, 238.3 kPa | 594.32 ± 0.9
280 K, 261.7 kPa | 594.34 ± 0.9
280 K, 285 kPa | 594.4 ± 0.9
300 K, 271.4 kPa | 571.6 ± 0.86
300 K, 294.8 kPa | 571.61 ± 0.86
300 K, 318.1 kPa | 571.67 ± 0.98
300 K, 341.4 kPa | 571.69 ± 0.86
300 K, 364.8 kPa | 571.72 ± 0.86
300 K, 388.1 kPa | 571.76 ± 0.86
300 K, 411.5 kPa | 571.8 ± 0.86
320 K, 469.7 kPa | 547.03 ± 0.82
320 K, 493 kPa | 547.12 ± 0.91
320 K, 516.3 kPa | 547.15 ± 0.88
320 K, 539.6 kPa | 547.22 ± 0.82
320 K, 563 kPa | 547.25 ± 0.82
320 K, 586.3 kPa | 547.25 ± 0.85
320 K, 609.6 kPa | 547.3 ± 0.82
340 K, 763.1 kPa | 520.53 ± 0.78
340 K, 786.4 kPa | 520.62 ± 0.81
340 K, 809.7 kPa | 520.68 ± 0.81
340 K, 833 kPa | 520.72 ± 0.8
340 K, 856.3 kPa | 520.82 ± 0.78
340 K, 879.7 kPa | 520.9 ± 0.78
340 K, 903 kPa | 520.96 ± 0.78
360 K, 1176.4 kPa | 490.56 ± 0.72
360 K, 1199.7 kPa | 490.68 ± 0.74
360 K, 1223 kPa | 490.79 ± 0.74
360 K, 1246.3 kPa | 490.91 ± 0.73
360 K, 1269.6 kPa | 490.99 ± 0.73
360 K, 1292.9 kPa | 491.01 ± 0.72
360 K, 1316.1 kPa | 491.18 ± 0.72
380 K, 1759.6 kPa | 454.68 ± 0.66
380 K, 1782.8 kPa | 454.9 ± 0.66
380 K, 1806.1 kPa | 455.09 ± 0.66
380 K, 1829.3 kPa | 455.25 ± 0.67
380 K, 1852.5 kPa | 455.46 ± 0.66
380 K, 1875.8 kPa | 455.6 ± 0.66
380 K, 1899 kPa | 455.78 ± 0.66
424 K, 3720.3 kPa | 289.99 ± 1.1
424 K, 3720.4 kPa | 289.82 ± 1.2
424 K, 3728.4 kPa | 294.73 ± 1.1
424 K, 3737.3 kPa | 298.52 ± 1.1

Conditions | mass density [kg/m3] | vapor or sublimation pressure
280 K | 594.08 ± 0.95 | 133 ± 0.6 kPa
300 K | 571.57 ± 0.91 | 257.5 ± 0.6 kPa
320 K | 547.03 ± 0.88 | 456.2 ± 0.9 kPa
340 K | 520.5 ± 0.83 | 752 ± 1.2 kPa
360 K | 490.55 ± 0.78 | 1170.2 ± 1.8 kPa
370 K | – | 1434.9 ± 2.2 kPa
380 K | 454.55 ± 0.73 | 1739.9 ± 2.7 kPa and 1740.4 ± 2.7 kPa
390 K | – | 2092.1 ± 3.3 kPa
400 K | – | 2495.2 ± 3.9 kPa and 2494.6 ± 3.9 kPa
410 K | – | 2955 ± 4.6 kPa
420 K | – | 3482.5 ± 5.4 kPa
422 K | – | 3597.5 ± 5.6 kPa
424 K | 288.22 ± 1.7 | 3716.9 ± 5.8 kPa
